A word on the GI50: it is the concentration giving 50% growth inhibition. What is called TGI is the concentration giving total growth inhibition. The low end stands for more potent growth arrest, the high end for less potent growth arrest.

We go through nine compounds from PubChem BioAssay (NCI).

Molecules are shown by their SMILES.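 Each compound was tested at five concentrations against cells in 96-well plates for 48 hours. GI50 is the concentration that inhibits growth by half. At the TGI there is no net growth.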 A value given as a limit tells only on which side of the number the result lay.

Common to all, as to assay: DTP human tumour cell line panel, 48 h
The test system of test [1] is U251 CNS.
In test [2] the test system is UACC-257 melanoma.
Test [3] relates to M14 melanoma.
The test system of test [4] is NCI-H460 lung.
The test system of test [5] is A498 renal.
The test system of test [6] is SK-MEL-2 melanoma.
Test [7] concerns IGROV1 ovarian.
The subject of test [8] is MOLT-4 leukemia.
For test [9], the system named is SNB-75 CNS.
The test system of test [10] is EKVX NSCLC.

For `NCCCCCCCCCn1c2c(c3ccccc3c1=O)C(=O)c1ccccc1-2`, the GI50 in [1] was 9520 nM; in test [2] it was 10.1 µM; in [3], 9.67 µM; in test [4], 2.8 µM; in test [5] it was 7.74 µM; in [6], 15.5 µM. Moreover, the GI50 in test [7] was 10.2 µM; in [8], 4100 nM; in [9] it was 10.7 µM; in test [10], 9.16 µM. In addition, the TGI in test [1] was 19.1 µM; in test [2], 22.7 µM; in test [3], 18 µM; in [4] it was 14.2 µM; in test [5] it was 16.4 µM; in test [6], > 50 µM. The TGI in [7] is > 50 µM; in test [8] it was 40.4 µM; in test [9], 21.7 µM; in test [10] it was 17.3 µM.
For the compound `O=C(c1ccccc1)c1c2n(c3c1cc(O)c1ccccc13)CCN2`, the GI50 is 1780 nM in test [1]; 1.91 µM in [2]; 7.09 µM in test [3]; 4.7 µM in test [4]; 18.3 µM in [5]; 3.02 µM in [6]. Further, the GI50 in [7] is 2.19 µM; in test [8], 2060 nM; in test [9] it was 2.22 µM; in [10], 8.63 µM. Further, the total growth inhibition concentration (TGI) was 3.4 µM in [1]; 3.4 µM in [2]; 19.3 µM in [3]; 15.8 µM in test [4]; 35.4 µM in test [5]; 8.55 µM in test [6]. Moreover, the concentration for total growth inhibition (TGI) was found to be 4.84 µM in test [7], 4.45 µM in test [8], 4.76 µM in test [9] and 22.5 µM in test [10].
For the compound `O=C1Nc2c(ccc(Cl)c2Cl)/C1=C\c1cc(C(F)(F)F)cc(C(F)(F)F)c1`, the GI50 in test [1] was 1150 nM; in [2], 6.62 µM; in test [3], 5.06 µM; in [4], 2.45 µM; in [5], 5.59 µM; in test [6], 4.11 µM. Moreover, the GI50 in test [7] was 0.222 µM; in [8], 2090 nM; in test [9], 1.05 µM; in test [10], 1.93 µM. In addition, the TGI in test [1] came out at 3.22 µM; in test [2] it was 13.7 µM; in test [3] it was 11.3 µM; in test [4] it was 7.68 µM; in test [5] it was 13.6 µM; in test [6], 10.9 µM. Also, the TGI in [7] was 3.52 µM; in [8], 4.68 µM; in test [9], 7.48 µM; in [10] it was 11.2 µM.
Regarding `Cc1cc(N(CCC#N)CCC#N)ccc1CC1N=C(c2ccccc2)OC1=O` (stereo not given), the TGI in [1], in [2], in [3], in [4], in test [5] and in [6] was > 100 µM in each case. The TGI in test [7], in test [8], in test [9] and in test [10] was > 100 µM throughout.
In the case of `COc1c(OC)c(OC)c(-c2cc(=O)c3c(OC)c(OC)c(OC)c(OC)c3o2)c(OC)c1OC`, the total growth inhibition concentration (TGI) in test [1] was > 100 µM; in test [2], > 100 µM; in test [3], > 100 µM; in [4], > 100 µM; in test [5], 89.1 µM; in test [6] it was > 100 µM. Also, the TGI is 64.2 µM in test [7], > 100 µM in test [8], > 100 µM in [9] and > 100 µM in test [10].
Regarding `C=C(C)C1CCC2(C(=O)O)CCC3(C)C(CCC4C5(C)CCC(O)C(C)(C)C5CCC43C)C12` (stereo not given), the TGI in test [1] was 22 µM; in [2] it was 21.8 µM; in [3], 27.7 µM; in test [4], 39 µM; in test [5], 20.7 µM; in [6] it was 32.2 µM. The TGI in [7] stood at 28.7 µM; in [8] it was 26.5 µM; in [9], 33 µM; in test [10], 44.9 µM.
Regarding `C/C(CC(=O)Nc1cccc(C)c1C)=N\NC(N)=S`, the TGI in test [1], in test [2], in [3], in test [4], in test [5] and in test [6] was > 100 µM each time. Moreover, the TGI in [7], in test [8], in test [9] and in [10] was > 100 µM in each case.
As to `COC(=O)Cc1nn2c(nc1=O)sc1ccc3ccccc3c12`, the TGI in test [1] was 74.1 µM; in [2] it was > 100 µM; in test [3], > 100 µM; in test [4] it was > 100 µM; in test [5], > 100 µM; in test [6] it was > 100 µM. In addition, the TGI in test [7] was > 100 µM; in [8], > 100 µM; in [9], 76.3 µM; in [10], > 100 µM.
Turning to `COc1cc(/C=C2\CC3C4CCC5=CC(=O)CC[C@]5(C)C4CC[C@]3(C)C2=O)ccc1OCCN1CCCCC1` (stereo not given in full), the GI50 in [1] was 3200 nM; in [2], 4.8 µM; in [3], 1.87 µM; in test [4], 3.43 µM; in test [5], 1.9 µM; in test [6], 22 µM. The GI50 was 11.2 µM in [7], 2730 nM in test [8], 6.97 µM in test [9] and 6.3 µM in test [10]. For the same compound, the total growth inhibition concentration (TGI) in test [1] was 11.2 µM; in [2], 18.4 µM; in test [3] it was 3.46 µM; in test [4] it was 14.1 µM; in [5], 12.1 µM; in test [6], > 100 µM. Besides, the TGI in [7] is > 100 µM; in test [8], 75.2 µM; in test [9], 24.8 µM; in [10], 21.8 µM.
